From patent US20240182525A1, “NOVEL BICYCLIC COMPOUND, OPTICAL ISOMER THEREOF OR PHARMACEUTICALLY ACCEPTABLE SALT THEREOF, USE THEREOF, AND PREPARATION METHOD THEREFOR” (KOREARESEARCH INSTITUTE OF BIOSCIENCE AND BIOTECHNOLOGY, priority 2021, published 2024)

Assays:
[1] = tested on: osteogenic differentiation-related genes (mCol1a1, mOsteocalcin, mOsterix); assay: RT-PCR of osteogenic differentiation-related genes; format: cell-based, mouse; conditions: Day 7 of differentiation, FIG. 17
Source text: In order to confirm the effect of the compound of Chemical Formula 1 according to the present invention on promoting osteogenic differentiation-related genes, the expression levels of genes promoting osteogenesis were confirmed.
To confirm genetic changes during the differentiation process, total RNA was isolated on Day 7 of differentiation using Trizol reagent (Invitrogen, CA, USA) according to the manufacturer's instructions. The cultured cells were washed twice with cold PBS and lysed with 1 ml of Trizol reagent. To the resulting product, 200 μl of chloroform was added and mixed, followed by centrifugation at 4° C. and 12000 rpm for 20 minutes to separate the supernatant. The same amount of isopropanol was added to the separated supernatant, mixed, and centrifuged again at 4° C. and 12000 rpm. The supernatant was removed, and the remaining pellet was washed three times with 70% ethanol to separate RNA. For RT-PCR, the same amount of total RNA (5 μl) was put into the RT-PCR amplification kit and reacted at 45° C. for 60 minutes to prepare complementary DNA (cDNA). RT-PCR was performed on the cDNA by using AccuPower®RT/PCR PreMix (Bioneer, Korea). Briefly, 2 μl each of 75 mM rATP, rUTP, rCTP, rGTP, enzyme mixture, and 10× reaction buffer was added to 8 μl of the cDNA solution prepared above, followed by amplification according to the manufacturer's instructions, and the quantity and quality of the amplified mRNA was evaluated using nanodrops and 1% agarose gel electrophoresis.

[2] = tested on: β, a Wnt3a signaling protein; assay: Western blotting of Wnt3a signaling protein in 3T3-L1; format: cell-based, mouse; conditions: 7.5 μM, 3T3-L1, western blotting, FIGS. 6 and 7
Procedure: To confirm the Wnt3a signaling of Chemical Formula 1-1, the protein level of β, a Wnt3a signaling protein, was measured in the 3T3-L1 cell line. The 3T3-L1 cells were cultured in a 6-well plate (2×10^5 cell/well), and the next day, the cells were replaced with normal culture media (Undifferentiated media; UND) and differentiation induction media (Differentiation media; DM), respectively, followed by treatment with the compound of Chemical Formula 1-1 at 7.5 μM for 48 hours, and then the cells were replaced with new normal culture media (Maintaining media; MM). Here, the compound of Chemical Formula 1-1 at a concentration of 7.5 μM was cultured for 72 hours, followed by western blotting. In FIGS. 6 and 7, it was confirmed that the protein level of β increased in the treatment of the compound of Chemical Formula 1-1 alone and the treatment of Chemical Formula 1-1 and Wnt3a together.

[3] = Cytotoxicity assay, B16F10; format: cell-based; conditions: mouse, B16F10 cells (malignant melanoma); B16F10, 48 hours, maximum concentration 100 μM
Procedure: (§1) To measure the cytotoxicity of the compound represented by Chemical Formula 1 (Chemical Formula 1-1), toxicity was measured in mouse preadipocyte 3T3-L1 cell line, human malignant melanoma A375 cell line, mouse malignant melanoma B16F10 cell line, human oral cancer MDA-MB-435 cell line, mouse breast cancer 4T1 cell line, human breast cancer MCF7 cell line, human brain cancer U87MG cell line, human glioblastoma U373MG cell line, human cervical cancer HeLa cell line, mouse embryonic fibroblast (MEF) cell line, human embryonic kidney HEK293T cell line (Korea Cell Line Bank). First, 1×10^4 cells were divided into 200 μl each in a 96-well plate using Dulbecco's Modified Eagle's Medium (DMEM) supplemented with 10% fetal bovine serum (FBS), […] streptomycin, and 50 U/ml penicillin, while maintaining various cells at 37r in an atmosphere of 5% CO2. The cells were treated with the compound of Chemical Formula 1-1 of the present invention at a maximum concentration of 100 μM and cultured for 48 hours under the same culture conditions. After the incubation, the culture media were removed and the cytotoxicity test results were confirmed (Table 2 and FIG. 3 below).

C57BL/C6 mice = assay: Blood obesity and liver damage markers in high calorie diet mice; format: in vivo, mouse; conditions: plasma, compared to high calorie control group, FIG. 13
Procedure: Then, after the experiment was completed, the animal blood of each group was collected and centrifuged to separate plasma, and then representative obesity markers in the blood such as total cholesterol (tCHO), high density lipoprotein (HDL), and low density lipoprotein (LDL), and liver damage markers such as glutamic oxaloacetic transaminase (GOT) and glutamic pyruvic acid transaminase (GPT) were analyzed with a blood chemistry analyzer.

MC3T3-E1 cells = assay: ALP activity analysis in MC3T3-E1 cell lysate; format: cell-based, mouse; conditions: 5, 10, and 20 νM, 7 days, absorbance 405 nm, FIG. 16
Procedure: In order to analyze the effect of the compound of Chemical Formula 1 according to the present invention on ALP activity, MC3T3-E1 cells, which are mouse osteoblasts, were inoculated into a 96-well plate at a concentration of 5×10^3 cell/well, and incubated overnight in growth media containing alpha-minimum essential media (alpha-MEM, JBI #008-53) supplemented with 10% fetal bovine serum (FBS, Gibco #16000, USA) and 1× antibiotics (Gibco #15240062, USA). As a negative control, an alpha minimum essential medium containing 10% FBS was used. As a positive control, 100 μg/ml of ALP-activating ascorbic acid and 10 mM of β-glycerophosphate were mixed, and the positive control was exchanged with media added with 5, 10, and 20 νM of Chemical Formula 1-1 (6-J) on Day 3, and treated for 7 days. After 7 days, the media were removed and the cells were washed with PBS, and the cultured MC3T3-E1 cells were lysed with 0.1% TritonX-100 (in PBS) solution and centrifuged to obtain only the supernatant. A predetermined amount of supernatant and ALP were added and reacted for 30 minutes, and then the absorbance was confirmed at 405 nm.

[4] = Cytotoxicity assay, 3T3-L1; format: cell-based; conditions: mouse, 3T3-L1 cells (preadipocytes); 3T3-L1, 48 hours, maximum concentration 100 μM
Procedure: as §1

## CC(C)CC1NC(=O)C2CCCN2C(=O)C(C(O)C(C)C)NC(=O)CNC(=O)C(C(C)O)NC(=O)C2NC(=O)C(NC(=O)/C=C/c3ccccc3C(O)C(C)O)C(C)OC(=O)C(CC(N)=O)NC(=O)C(NC(=O)C(O)NC1=O)C(O)c1ccc(O)c(c1)Oc1ccc2cc1 (stereo not shown) [Chemical Formula 1-1]
[1]
  mRNA expression level of mCol1a1: increase
  mRNA expression level of mOsteocalcin: increase
  mRNA expression level of mOsterix: increase
[2]; compound alone
  protein level of β: increased
[2]; together with Wnt3a
  protein level of β: increased
[3]
  IC50 at 48 h: > 100 µM
C57BL/C6 mice
  glutamic oxaloacetic transaminase (GOT): significantly reduced
  glutamic pyruvic acid transaminase (GPT): significantly reduced
  high density lipoprotein (HDL): increased
  low density lipoprotein (LDL): significantly reduced
  total cholesterol (tCHO): significantly reduced
MC3T3-E1 cells
  ALP activity: increased
[4]
  IC50 at 48 h: > 100 µM
